Laboratory results reported in PubChem BioAssay (NCI).
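How tested: cells in 96-well plates exposed to compound for 48 hours at five concentrations. GI50 marks 50% less growth. Definition used: TGI = concentration required for complete inhibition of growth.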

How the values were obtained:
Experiment in all cases: NCI-60 cell line screen, 48 h
786-0 renal = test system: 786-0 renal
A498 renal = test system: A498 renal
A549 NSCLC = test system: A549 NSCLC
ACHN renal = test system: ACHN renal
BT-549 breast = test system: BT-549 breast
CAKI-1 renal = test system: CAKI-1 renal
CCRF-CEM leukemia = test system: CCRF-CEM leukemia
COLO 205 colon = test system: COLO 205 colon
DU-145 prostate = test system: DU-145 prostate
EKVX NSCLC = test system: EKVX NSCLC
HCC-2998 colon = test system: HCC-2998 colon
HCT-116 colon = test system: HCT-116 colon
HCT-15 colon = test system: HCT-15 colon
HL-60(TB) leukemia = test system: HL-60(TB) leukemia
HOP-62 NSCLC = test system: HOP-62 NSCLC
HOP-92 NSCLC = test system: HOP-92 NSCLC
HS 578T breast = test system: HS 578T breast
HT29 colon = test system: HT29 colon
IGROV1 ovarian = test system: IGROV1 ovarian
K-562 leukemia = test system: K-562 leukemia
KM12 colon = test system: KM12 colon
M14 melanoma = test system: M14 melanoma
MALME-3M melanoma = test system: MALME-3M melanoma
MCF7 breast = test system: MCF7 breast
MDA-MB-231 breast = test system: MDA-MB-231 breast
MDA-MB-435 = test system: MDA-MB-435
MOLT-4 leukemia = test system: MOLT-4 leukemia
NCI-H226 lung = test system: NCI-H226 lung
NCI-H23 lung = test system: NCI-H23 lung
NCI-H522 lung = test system: NCI-H522 lung
NCI/ADR-RES ovarian = test system: NCI/ADR-RES ovarian
OVCAR-4 ovarian = test system: OVCAR-4 ovarian
OVCAR-5 ovarian = test system: OVCAR-5 ovarian
OVCAR-8 ovarian = test system: OVCAR-8 ovarian
PC-3 prostate = test system: PC-3 prostate
RPMI-8226 leukemia = test system: RPMI-8226 leukemia
RXF 393 renal = test system: RXF 393 renal
SF-268 CNS = test system: SF-268 CNS
SF-295 CNS = test system: SF-295 CNS
SF-539 CNS = test system: SF-539 CNS
SK-MEL-2 melanoma = test system: SK-MEL-2 melanoma
SK-MEL-28 melanoma = test system: SK-MEL-28 melanoma
SK-MEL-5 melanoma = test system: SK-MEL-5 melanoma
SK-OV-3 ovarian = test system: SK-OV-3 ovarian
SN12C renal = test system: SN12C renal
SNB-19 CNS = test system: SNB-19 CNS
SNB-75 CNS = test system: SNB-75 CNS
SR leukemia = test system: SR leukemia
T-47D breast = test system: T-47D breast
TK-10 renal = test system: TK-10 renal
U251 CNS = test system: U251 CNS
UACC-257 melanoma = test system: UACC-257 melanoma
UACC-62 melanoma = test system: UACC-62 melanoma
UO-31 renal = test system: UO-31 renal

Oc1ccc(CSc2nnc(-c3ccc(Oc4ccccc4)cc3)o2)c2cccnc12
GI50 (786-0 renal): 1020 nM | TGI (786-0 renal): 5880 nM | GI50 (A498 renal): 8410 nM | TGI (A498 renal): > 100000 nM | GI50 (A549 NSCLC): 1680 nM | TGI (A549 NSCLC): > 100000 nM | GI50 (ACHN renal): 565 nM | TGI (ACHN renal): 2140 nM | GI50 (BT-549 breast): 905 nM | TGI (BT-549 breast): > 100000 nM | GI50 (CAKI-1 renal): 1880 nM | TGI (CAKI-1 renal): > 100000 nM | GI50 (CCRF-CEM leukemia): 498 nM | TGI (CCRF-CEM leukemia): > 100000 nM | GI50 (COLO 205 colon): > 100000 nM | TGI (COLO 205 colon): > 100000 nM | GI50 (DU-145 prostate): 3270 nM | TGI (DU-145 prostate): > 100000 nM | GI50 (EKVX NSCLC): 515 nM | TGI (EKVX NSCLC): > 100000 nM | GI50 (HCC-2998 colon): 1040 nM | TGI (HCC-2998 colon): > 100000 nM | GI50 (HCT-116 colon): 420 nM | TGI (HCT-116 colon): 4400 nM | GI50 (HCT-15 colon): 368 nM | TGI (HCT-15 colon): > 100000 nM | GI50 (HL-60(TB) leukemia): 668 nM | TGI (HL-60(TB) leukemia): > 100000 nM | GI50 (HOP-62 NSCLC): 682 nM | TGI (HOP-62 NSCLC): 9850 nM | GI50 (HOP-92 NSCLC): 1410 nM | TGI (HOP-92 NSCLC): 24900 nM | GI50 (HS 578T breast): 612 nM | TGI (HS 578T breast): 27400 nM | GI50 (HT29 colon): > 100000 nM | TGI (HT29 colon): > 100000 nM | GI50 (IGROV1 ovarian): 645 nM | TGI (IGROV1 ovarian): > 100000 nM | GI50 (K-562 leukemia): 368 nM | TGI (K-562 leukemia): > 100000 nM | GI50 (KM12 colon): 2650 nM | TGI (KM12 colon): > 100000 nM | GI50 (M14 melanoma): 621 nM | TGI (M14 melanoma): > 100000 nM | GI50 (MALME-3M melanoma): 4540 nM | TGI (MALME-3M melanoma): > 100000 nM | GI50 (MCF7 breast): 497 nM | TGI (MCF7 breast): > 100000 nM | GI50 (MDA-MB-231 breast): 1490 nM | TGI (MDA-MB-231 breast): 79900 nM | GI50 (MDA-MB-435): 713 nM | TGI (MDA-MB-435): > 100000 nM | GI50 (MOLT-4 leukemia): 1280 nM | TGI (MOLT-4 leukemia): > 100000 nM | GI50 (NCI-H226 lung): 15300 nM | TGI (NCI-H226 lung): > 100000 nM | GI50 (NCI-H23 lung): 739 nM | TGI (NCI-H23 lung): 44900 nM | GI50 (NCI-H522 lung): 4990 nM | TGI (NCI-H522 lung): > 100000 nM | GI50 (NCI/ADR-RES ovarian): 489 nM | TGI (NCI/ADR-RES ovarian): 84600 nM | GI50 (OVCAR-4 ovarian): 1770 nM | TGI (OVCAR-4 ovarian): 8010 nM | GI50 (OVCAR-5 ovarian): 8020 nM | TGI (OVCAR-5 ovarian): > 100000 nM | GI50 (OVCAR-8 ovarian): 633 nM | TGI (OVCAR-8 ovarian): > 100000 nM | GI50 (PC-3 prostate): 561 nM | TGI (PC-3 prostate): > 100000 nM | GI50 (RPMI-8226 leukemia): 458 nM | TGI (RPMI-8226 leukemia): > 100000 nM | GI50 (RXF 393 renal): 3550 nM | TGI (RXF 393 renal): > 100000 nM | GI50 (SF-268 CNS): 659 nM | TGI (SF-268 CNS): > 100000 nM | GI50 (SF-295 CNS): 877 nM | TGI (SF-295 CNS): 7490 nM | GI50 (SF-539 CNS): 689 nM | TGI (SF-539 CNS): 55500 nM | GI50 (SK-MEL-2 melanoma): 3560 nM | TGI (SK-MEL-2 melanoma): 90200 nM | GI50 (SK-MEL-28 melanoma): 4800 nM | TGI (SK-MEL-28 melanoma): > 100000 nM | GI50 (SK-MEL-5 melanoma): 1270 nM | TGI (SK-MEL-5 melanoma): > 100000 nM | GI50 (SK-OV-3 ovarian): 1920 nM | TGI (SK-OV-3 ovarian): 21800 nM | GI50 (SN12C renal): 2130 nM | TGI (SN12C renal): > 100000 nM | GI50 (SNB-19 CNS): 421 nM | TGI (SNB-19 CNS): > 100000 nM | GI50 (SNB-75 CNS): 595 nM | TGI (SNB-75 CNS): 3920 nM | GI50 (SR leukemia): 370 nM | TGI (SR leukemia): > 100000 nM | GI50 (T-47D breast): 2170 nM | TGI (T-47D breast): 9120 nM | GI50 (TK-10 renal): 2450 nM | TGI (TK-10 renal): 69800 nM | GI50 (U251 CNS): 460 nM | TGI (U251 CNS): 2700 nM | GI50 (UACC-257 melanoma): 15700 nM | TGI (UACC-257 melanoma): > 100000 nM | GI50 (UACC-62 melanoma): 2410 nM | TGI (UACC-62 melanoma): > 100000 nM | GI50 (UO-31 renal): 373 nM | TGI (UO-31 renal): 2380 nM
